The subject of this experiment is SARS-CoV-2. Description: microbe, parasite or virus in culture. The class given is cell-based.
[1] abbreviates: Severe acute respiratory syndrome coronavirus 2, VeroE6/TMPRSS2.
Where [2] appears, read: Severe acute respiratory syndrome coronavirus 2, VeroE6/TMPRSS2, Beta strain (TY8-612).
Setting [3] is: Severe acute respiratory syndrome coronavirus 2, VeroE6/TMPRSS2, Gamma strain (TY7-501).
[4] abbreviates: Severe acute respiratory syndrome coronavirus 2, VeroE6/TMPRSS2, Gamma strain (TY7-503).

pEC50: −log10 of the molar value.

As for `Cn1cnc(Cn2c(=O)[nH]/c(=N\c3cc4cn(C)nc4cc3Cl)n(Cc3cc(F)c(F)cc3F)c2=O)n1`, the pEC50 (as a rule, the negative decadic logarithm of the EC50, by convention in mol/L) under setting [1] is 6.43; the pEC50 under setting [2] is 6.40; the negative logarithm of the EC50 (pEC50) (Severe acute respiratory syndrome coronavirus 2, VeroE6/TMPRSS2, Delta strain (TY11-927-P1)) is 6.39; the pEC50 under setting [3] was 6.30; the pEC50 under setting [4] was 6.37; the pEC50 (Severe acute respiratory syndrome coronavirus 2, VeroE6/TMPRSS2, Lambda strain (TY33-456)) was 6.57. The same molecule had a pEC50 (Severe acute respiratory syndrome coronavirus 2, VeroE6/TMPRSS2, Mu strain (TY26-717)) of 6.37 and a pEC50 (Severe acute respiratory syndrome coronavirus 2, VeroE6/TMPRSS2, Theta strain (TY28-444)) of 6.54.

As to `Cc1cncc(-n2c(=O)nc(Nc3cc4cn(C)nc4cc3Cl)n(Cc3cc(F)c(F)c(F)c3)c2=O)c1`, the pEC50 under setting [1] was 6.92; the pEC50 (Severe acute respiratory syndrome coronavirus 2, VeroE6/TMPRSS2, Alpha strain (QHN001)) is 6.85; the pEC50 (Severe acute respiratory syndrome coronavirus 2, VeroE6/TMPRSS2, Alpha strain (QHN002)) is 6.89; the pEC50 (Severe acute respiratory syndrome coronavirus 2, VeroE6/TMPRSS2, Alpha strain (QK002)) was 6.80; the pEC50 under setting [2] was 6.80; the negative-log EC50 (pEC50) under setting [3] was 6.66. Under setting [4], this molecule gave a pEC50 of 6.82.

For the origin of these results see US20250127788A1, “PHARMACEUTICAL COMPOSITION CONTAINING TRIAZINE DERIVATIVE” (Shionogi & Co., Ltd., priority 2021, published 2025).
